# According to patent publication US5648376A, “Immunosuppressant diterpene compound” (Pharmagenesis, Inc., priority 1995, dated 1997):
# How the values were obtained:
# [1] = system: proliferation of lymphocytes in a mixed lymphocyte reaction; experiment: Murine mixed lymphocyte reaction (MLR); type: cell-based, mouse; conditions: at 0.1 μg/ml; C57Bl/6 responder, irradiated Balb/C stimulator spleen cells; 4 days
# Protocol: A measure of immunosuppression that serves as a model for transplantation rejection is inhibition of cell proliferation in a mixed lymphocyte reaction (MLR) assay (Bradley, in Mishell, 1980). In these experiments, an MLR is induced by co-incubating responder (R) cells from one mouse strain (C57B1/6) with stimulator (S) cells from another mouse strain (Balb/C).
# The responder cells proliferate in the presence of the allogenic stimulator cells. The stimulator cells are irradiated so they are unable to proliferate. After 72 hours incubation, tritiated thymidine is added to the mixed cell cultures, and incorporation of the labeled nucleotide into DNA is assayed as an index of cell proliferation.
# In the MLR test reported in Example 7, responder cells were co-cultured in microtitre wells with stimulator cells, in the presence of selected concentrations of subglutinol between 0.01 and 0.3 μg/ml. The wells receiving no subglutinol would be expected to be maximally stimulated. The cells were cultured for 4 days, and labeled with [^3 H] thymidine during the last 18 hours of incubation. […]
# Several controls were conducted in the MLR assay. […] The spontaneous proliferation of R was also measured. […] Cells were harvested and counted as above. […]
# [2] = system: IL-1 action on mouse thymocytes; experiment: Inhibition of IL-1 action on mouse thymocytes (proliferation, [3H] thymidine incorporation); type: cell-based; conditions: at about 0.2 μg/ml; rIL-1β 0.08 ng/ml plus PHA 10 μg/ml; 72 hours; range 0.012 to 0.76 μg/ml
# Protocol: The ability of subglutinol to suppress the cell-proliferative effect of IL-1 in mouse thymocytes as an index of IL-1 action (O'Gara, 1990) was also examined. In this study, mouse thymocytes in culture were stimulated with IL-1 in the presence of phytohemagglutinin and increasing concentrations of subglutinol. The cells were cultured for 72 hours, and during the last four hours, incubated with tritiated thymidine. […] Details are given in Example 6.
# Mouse thymocytes were prepared, and the action of IL-1, which stimulates thymocyte proliferation, was measured using standard techniques (O'Gara, 1990). Three to six week old C3H/HeN male mice (Simonson Laboratory, Gilroy, Calif.) were sacrificed by CO2 inhalation. Thymi were removed, separated from adherent non-thymic tissue, homogenized in Hank's balanced salt solution (HBSS, Gibco) using a glass homogenizer, and centrifuged at 200×g for 10 minutes at 15° C. Following an additional wash in HBSS, the thymocytes were resuspended in RPMI 1640 medium (Gibco) containing 50 μM 2-mercaptoethanol, 2 mM glutamine, 1 mM sodium pyruvate, non-essential amino acids 100 U/ml penicillin, 100 μg/ml streptomycin and 10% heat-inactivated fetal bovine serum. […]
# Subglutinol was added, 25 μl per well, to obtain final concentrations of subglutinol between 0.001 and 0.78 μg/ml. […] Cells were harvested and counted as above. […]
# [3] = system: human peripheral blood lymphocytes (PBLs); experiment: Suppression of PBL proliferation in vitro (anti-CD3 X-35 stimulated, [3H] thymidine incorporation); type: cell-based; conditions: X-35 5 ng/ml; 72 hours; subglutinol between 1 and 20 μg/ml
# Protocol: One measure of immunosuppression is suppression of stimulated proliferation of peripheral blood lymphocytes (PBLs) in vitro. In the assay detailed in Example 5, PBLs were activated in vitro by addition of anti-CD3 monoclonal antibody (X-35 antibody). Subglutinol or vehicle (control) was added to each culture, at selected concentrations. After 72 hours incubation, tritiated thymidine was added to the culture medium, and incorporation of tritium into DNA was assayed as a measure of DNA synthesis associated with cell proliferation.
# This example examines the ability of subglutinol to suppress the proliferation of human peripheral blood lymphocytes (PBLs) when stimulated with X-35 (AMAC #0178), an anti-CD3 surface antigen antibody. Human PBLs were prepared using an established method (Boyum). Human blood buffy coat samples, approximately 25 ml/donor, were obtained from the Stanford University Medical Center Blood Bank. […] The cell pellets were suspended in 10 ml of X-Vivo tissue culture medium (BioWhittakar, Walkersville, Md) and counted using a hemocytometer. […]
# Plates were incubated at 37° C. in a 7% CO2 incubator for 72 hours. […] Samples were counted in a liquid scintillation counter (1205 Betaplate, Pharmacia LKB Biotechnology). […]
# [4] = Evaluation of potential toxicity (MTT assay); type: cell-based; conditions: human, pbls, 21 hours plus 3 hours MTT
# Protocol: Potential toxicity of the mixture was assessed by measurement the effect of subglutinol on the ability of cultured cells to reduce MTT (3-[4,5-Dimethylthiazol-2-yl]-2,5-diphenyltetrazolium bromide), an index of cellular respiration that is more sensitive in the detection of cytotoxicity than methods involving measurement of DNA replication (Green, 1984).
# Potential cytotoxicities of test samples were assessed by measuring the effect of subglutinol on the reduction of MTT (3-[4,5-Dimethylthiazole-2-yl]-2,5-diphenyl-tetrazolium bromide) by cultured cells. MTT, a yellow-colored compound, is reduced by mitochondrial enzymes to form a purple crystalline reduction product, formazane, providing an index of cellular respiration as well as a sensitive assay for cytotoxicity (Green, 1984).
# Cytotoxicity was assessed in cultured human PBLs. A stock solution of MTT (Sigma, St. Louis, Mo.), 5 mg/ml phosphate buffered saline, pH 7.4, was prepared and stored in the dark at 4° C. PBLs were cultured with various concentrations of test samples in flat-bottom 96 well tissue culture plate (Costar #3595) using the same conditions as in Example 5 above, except that X-35 was replaced with the appropriate medium.
# Untreated cells in medium alone were used as controls in each experiment. Following 21 hours of incubation of cells, 25 μl of MTT solution was added to each well. After an additional three hour incubation, the experiment was terminated by adding a solution of 10% sodium dodecyl sulfate in 0.01 N HCl.
# Following overnight incubation at 37° C. (to solubilize the formazane crystals), optical density was determined at 570-650 nm in a microplate reader (Thermo max, Molecular Devices, Calif.). Data are expressed as % cytotoxicity. Subglutinol concentrations of 0.03, 0.1, and 0.3 μg/ml gave % cytotoxicity values of 0, 20, and 28%, respectively.
smiles,measurement,setting,value
C=C1CCC2C3(C)CC(C=C(C)C)OC3CCC2(C)C1Cc1c(O)c(C)c(C)oc1=O (stereo not drawn) [subglutinol],percent inhibition of stimulation in MLR (FIG. 12),[1],Nearly complete inhibition
same,inhibition of IL-1 action on thymocytes (FIG. 11),[2],Nearly complete inhibition
same,percent suppression of proliferation of anti-CD3 stimulated PBLs (FIG. 10),[3],dose-dependent suppression
same,cytotoxicity at 24 h,[4]; 0.03 μg/ml,0%
same,cytotoxicity at 24 h,[4]; 0.1 μg/ml,20%
same,cytotoxicity at 24 h,[4]; 0.3 μg/ml,28%
